These results are taken from paper PMC4005910 (Cell Reports, 2014).

A short description of data set [1]: Solubility of peptide for TAP binding test. The class given is physicochemical. Particulars: could not be tested for TAP binding.
Another data set relates to cytoplasmatic peptidase. To be noted: half-life; ref Lazaro et al., 2011; cited from earlier work.

Regarding GTTSTLQEQIAW [GW12], the solubility entry in data set [1] is given as “insoluble”.

As for KAFSPEVIPMF [KF11], the “cytoplasmatic peptidase stability, t1/2” value in the data set with cytoplasmatic peptidase was 13 s.
